Some test systems named below: CAKI-1 renal; COLO 205 colon; DMS 114 small cell lung; HCT-15 colon; HOP-92 NSCLC; K-562 leukemia; M14 melanoma; M19-MEL melanoma; SNB-19 CNS; SNB-75 CNS.
Common to all, as to assay: NCI tumour cell line growth inhibition, 48 h

The structures appear in SMILES notation. “And” between values parts separate entries of the source, which are not always exact repeats. Identical values can stand only once.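 Briefly, cells in 96-well plates were exposed to five compound concentrations for 48 h, and endpoints were estimated by linear interpolation. GI50 = concentration required for 50% inhibition of growth. TGI denotes the concentration required for complete inhibition of growth.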 Where only a bound is given, the exact number is not on record here.

Regarding `CCCCCCCC(=O)OCC(COC(=O)C(C)(C)C)OC(=O)Cc1ccccc1` (stereo not given), the TGI in the test on CAKI-1 renal, in the test with COLO 205 colon, in the test with DMS 114 small cell lung, in the test with HCT-15 colon, with HOP-92 NSCLC and in the test on K-562 leukemia was > 100 µM each time. Moreover, the TGI in the test on M14 melanoma, in the test with M19-MEL melanoma and in the test with SNB-19 CNS was > 100 µM throughout.
For `Cc1c2ccnc(C(N)=O)c2c(C)c2c1[nH]c1ccccc12`, the GI50 in the test on CAKI-1 renal was 4.82 µM; in the test with DMS 114 small cell lung, 6.72 µM; in the test with HOP-92 NSCLC it was 2.96 µM and 11.5 µM; in the test on K-562 leukemia it was 3.9 µM; in the test with M19-MEL melanoma, 4.7 µM; in the test with SNB-19 CNS it was 4.45 µM. Further, in the test with SNB-75 CNS, the GI50 was 13.8 µM. In addition, the TGI in the test with CAKI-1 renal is 9.58 µM and 26.4 µM; in the test on COLO 205 colon, 50 µM and > 100 µM; with DMS 114 small cell lung it was 47.3 µM and 47.6 µM; in the test on HCT-15 colon, 41.1 µM and > 100 µM; in the test on HOP-92 NSCLC, 12 µM and 53.2 µM; with K-562 leukemia, 48.2 µM and > 100 µM. Moreover, the TGI in the test on M14 melanoma was > 100 µM; with M19-MEL melanoma it was 25.2 µM and 17.4 µM; in the test on SNB-19 CNS, 46.9 µM and 19.9 µM; with SNB-75 CNS, 24.6 µM and 39.9 µM.
For `CC1=NN(C(=O)Cc2ccccc2)C(=O)/C1=C\c1ccc(O)cc1`, the TGI in the test on CAKI-1 renal, in the test with COLO 205 colon, in the test with DMS 114 small cell lung, with HCT-15 colon, in the test with HOP-92 NSCLC and with K-562 leukemia was > 100 µM in each case. Besides, the TGI in the test with M14 melanoma, in the test on M19-MEL melanoma and in the test with SNB-19 CNS was > 100 µM each time.
`CN(C)c1nc(Oc2nc(N(C)C)nc(N(C)C)n2)nc(N(C)C)n1`: the TGI in the test with CAKI-1 renal, in the test on COLO 205 colon, in the test with DMS 114 small cell lung, in the test with HCT-15 colon, in the test with HOP-92 NSCLC and in the test with K-562 leukemia was > 100 µM each time. Further, the TGI in the test on M14 melanoma, in the test on M19-MEL melanoma, with SNB-19 CNS and with SNB-75 CNS was > 100 µM each time.
Take `COc1cc(C)c(CC/C(C)=C/Cc2cc(O)ccc2O)c(C)c1C`: the TGI with CAKI-1 renal, in the test with COLO 205 colon, with DMS 114 small cell lung, in the test with HCT-15 colon, with HOP-92 NSCLC and in the test with K-562 leukemia was > 25 µM in each case. In addition, the TGI with M14 melanoma, with M19-MEL melanoma, in the test with SNB-19 CNS and in the test with SNB-75 CNS was > 25 µM throughout.
For `Cc1c(N2CCOCC2)nc2ccc(Cl)cc2c1-c1ccccc1`, the TGI with CAKI-1 renal, with COLO 205 colon, in the test on DMS 114 small cell lung, in the test on HCT-15 colon, in the test on HOP-92 NSCLC and in the test on K-562 leukemia was > 100 µM in each case. The TGI in the test with M14 melanoma, in the test on M19-MEL melanoma, in the test on SNB-19 CNS and in the test with SNB-75 CNS was > 100 µM in each case.

These data come from PubChem BioAssay (NCI).
